Biological target: T1, Peptidoglycan D,D-transpeptidase FtsI (UniProt P0AD68)
T1 sequence (P0AD68 whole entry): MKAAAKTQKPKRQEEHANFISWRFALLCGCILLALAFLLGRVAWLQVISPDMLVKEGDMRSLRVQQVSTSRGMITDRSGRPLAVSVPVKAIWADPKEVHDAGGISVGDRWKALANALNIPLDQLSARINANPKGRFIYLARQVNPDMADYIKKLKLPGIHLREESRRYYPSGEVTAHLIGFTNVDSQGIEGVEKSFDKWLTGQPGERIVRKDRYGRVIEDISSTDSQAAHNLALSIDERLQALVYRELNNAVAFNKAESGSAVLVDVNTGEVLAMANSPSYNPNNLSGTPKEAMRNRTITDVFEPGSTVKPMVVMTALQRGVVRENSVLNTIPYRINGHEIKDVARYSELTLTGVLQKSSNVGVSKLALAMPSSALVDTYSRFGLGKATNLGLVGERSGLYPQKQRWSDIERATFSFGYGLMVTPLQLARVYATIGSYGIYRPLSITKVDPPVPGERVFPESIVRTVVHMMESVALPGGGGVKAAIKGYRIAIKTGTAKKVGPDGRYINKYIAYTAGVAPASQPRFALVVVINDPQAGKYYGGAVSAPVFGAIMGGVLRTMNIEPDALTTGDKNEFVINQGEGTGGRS
Assay: Fluorescence Polarization (FP) Competition Binding Assay
Description: To establish assay conditions for competition binding, an enzyme titration/saturation binding experiment was initially performed. Bocillin-FL was prepared at 0.2 μM in a buffer comprised of 50 mM Hepes (pH 8.0), 300 mM NaCl and 5% (v/v) glycerol. […] FP was measured immediately upon mixing (Excitation, 490 nm; Emission, 520 nm; g-factor, 0.96), using a Cytation3 (BioTek) microplate reader and measured continuously for up to 120 minutes. […] Bocillin-FL was added and the FP immediately measured for 60 minutes (90 minutes for PBP2).

SMILES	EC50
CCN1CCN(C(=O)NC(C(=O)N[C@H]2Cc3cccc(C(=O)O)c3OB2O)c2ccc(O)c(S(N)(=O)=O)c2)C(=O)C1=O (some centres not stated) [US12173018, Example 143]	< 30 µM
NCCN1CCN(C(=O)N[C@@H](C(=O)N[C@H]2Cc3cccc(C(=O)O)c3OB2O)c2ccc(O)c(O)c2Cl)C(=O)C1=O [US12173018, Example 220]	< 30 µM
